What was measured:
[1] = Fluorescence quantum yield, steady-state comparative method vs anthracene; format: physicochemical; details: DMSO at room temperature
Protocol: UV-Vis measurements were recorded on a Perkin-Elmer Lambda 25 UV-Vis. spectrometer equipped with a Peltier Temperature Programmer. Fluorescence emission spectra were obtained using a SPEX FluoroMax spectrometer, using a cell with spectral range 170-2200 nm (Spectrocell Corporation, Oreland, Pa., USA). Absorption spectra were recorded at 20° C. and fluorescence emission spectra were recorded at ambient temperature, using quartz cuvette with a 10 mm path length. All the fluorescence spectra were recorded with constant slit widths, 1 nm for excitation and 1 nm for emission and fluorescence spectra were averaged over three scans for quantum yield study. However, for FIG. 5 (III) fluorescence spectra were obtained with slit widths 3 nm for excitation and 3 nm for emission.
Fluorescence quantum yields of compounds 3, 5, 16A-19B (all excited at Δex.=λmax=419 nm) were determined relative to a dilute solution of standard anthracene (φF=0.27, λex=365.5 nm) in absolute ethanol by using the steady-state comparative method. using the following equation: φX=φST(GradX/GradST)(ηS^2,ηST^2) where, the subscripts ST and X denote standard and test respectively, φ is the fluorescence quantum yield, Grad the gradient from the plot of integrated fluorescence intensity versus absorbance, and η the refractive index of the solvent.

[2] = Partitioning in aqueous:CHCl3 two-phase system; format: physicochemical; details: two-phase H2O/CHCl3 system (FIG. 6)
Excerpt: (A) TPP(p-NH2)13 (B) TPPNH-Pip 5 (C) TPPp0.25-CS-TMA0.75 17A (D) TPPp0.25-CS-MP0.75 19A. Aqueous phases are shown on top.
In the ^1H NMR spectra of final compound TPPp0.1-CS-MP0.9 18A all peaks of the chitosan backbone along with the 1-methyl piperazine peaks can be clearly identified; however there is no observable NMR signal of the TPP moiety (FIG. 5E). […] In d6-DMSO the TPP peaks could be observed but in this case the chitosan backbone peaks were broadened and not clearly identifiable. […] The TPPp0.1-CS-MP0.9 18A has a dark red color confirming the presence of the PS.

[3] = Bhaumik et al., excited at 418 nm in DMF, TPP as standard; cited from earlier work
[4] = Table 4, λabs 420 nm, λem 653 nm
[5] = Table 2, excited at 419 nm, standard anthracene

Compound | Quantum Yield (φF) [1, 4] | Quantum Yield (φF) [1, 5] | Partitioning between aqueous and organic phase [2] | Fluorescence quantum yield (φF), literature value [3]
Nc1ccc(-c2c3nc(c(-c4ccccc4)c4ccc([nH]4)c(-c4ccccc4)c4nc(c(-c5ccccc5)c5ccc2[nH]5)C=C4)CC3)cc1 [Compound 20, 5-(4-Aminophenyl)-10,15,20-triphenylchlorin] | 0.00246 | – | – | –
5-(4-Carboxyphenyl)-10,15,20-triphenylchlorin [Compound 26] | 0.01331 | – | – | –
O=C(CN1CCNCC1)Nc1ccc(-c2c3nc(c(-c4ccccc4)c4ccc([nH]4)c(-c4ccccc4)c4nc(c(-c5ccccc5)c5ccc2[nH]5)C=C4)C=C3)cc1 [Compound 5, 5-(4α-Piperazineacetylamidophenyl)-10,15,20-triphenylporphyrin] | – | 0.0036 | did not partition into the aqueous phase | –
Nc1ccc(-c2c3nc(c(-c4ccccc4)c4ccc([nH]4)c(-c4ccccc4)c4nc(c(-c5ccccc5)c5ccc2[nH]5)C=C4)C=C3)cc1 [Compound 3, 5-(4-Aminophenyl)-10,15,20-triphenylporphyrin, reference compound] | – | 0.0002 | did not partition into the aqueous phase | 0.05
